Columns and labels:
LAT1 [1] = biological target: T1, LAT1 (Mus musculus, UniProt Q9Z127); test: Cis-inhibition of radiolabelled LAT1-probe substrate uptake into BV2 cells; type: cell-based; settings: for IC50: 5 min, mean ± SD
Method: (§1) After removal of the culture medium, the BV2 cells were carefully washed with pre-warmed HBSS (Hank’s balanced salt solution) containing 125.0 mM choline chloride, 4.8 mM KCl, 1.2 mM MgSO4, 1.2 mM KH2PO4, 1.3 mM CaCl2, 5.6 mM glucose, and 25.0 mM HEPES (pH 7.4 adjusted with 1 M NaOH). Pre-incubation was done with 500 μL of pre-warmed HBSS at 37 °C for 10 min before adding substrates (250 μL in HBSS) for the uptake experiments.
The ability of compounds 1–15 to inhibit the uptake of a known LAT1 substrate [^14C]-L-leucine was then evaluated by incubating the cells at 37 °C for 5 min in uptake buffer pH 7.4 (250 μL) containing 0.2 µCi/mL of [^14C]-L-leucine, or 2 µCi/mL of [^3H]-L-methionine, [^3H]-L-tryptophan or [^3H]-L-kynurenine (PerkinElmer, Waltham, MA, USA) and 0.1–1000 μM of the studied compound (or HBSS as blank). After incubation, the uptake was stopped by adding 250 µL of ice-cold HBSS, and the cells were washed two times with ice-cold HBSS. The cells were then lysed with 500 μL of NaOH (0.1 M) for 60 min and the lysate was mixed with 3.5 mL of Emulsifier safe cocktail (Ultima Gold, PerkinElmer, Waltham, MA, USA). The radioactivity in the cells was measured by liquid scintillation counting (MicroBeta^2 counter, PerkinElmer Waltham, MA, USA). Half of the maximum inhibitory concentration (IC50) values were calculated by nonlinear regression analysis (fitting the curve to log (concentration) vs. remaining normalized […]).

LAT1 [2] = biological target: T1, LAT1; test: Inhibition type of [14C]-L-Leu uptake (Hanes-Woolf plots) in BV2 cells; type: cell-based; settings: for Vmax of [14C]-L-Leu uptake: 0.010–0.20 µM [14C]-L-Leu in the presence of the compound at its IC50, mean ± SD, n = 3–4; for Vmax of [14C]-L-Leu uptake / Inhibition Type: BV2; for Inhibition Type: of [14C]-L-Leu uptake, concluded from Km and Vmax
Method: as §1
To evaluate the inhibition type of studied compounds, the BV2 cells were incubated with 0.010–0.20 μM [^14C]-L-leucine together with the studied compound. The concentration of compounds was selected according to the compound-specific IC50 values. The experiment was then carried out as described for the [^14C]-L-leucine uptake above and the radioactivity was measured by liquid scintillation counting. Hanes-Woolf plots were created by setting the ratio of initial substrate concentration to the reaction velocity ([S]/v) against [^14C]-L-leucine concentration (µM). The linear regression was used to calculate Km value (negative value of x-intercept) and Vmax value (1/slope) for [^14C]-L-leucine.

LAT1 [3] = biological target: T1, LAT1; test: Concentration-dependent cellular uptake into BV2 cells, Eadie–Hofstee analysis, Transport Type 1 (LAT1); type: cell-based; settings: 1–200 µM, 30 min, BV2; Eadie–Hofstee; mean ± SD, n = 3
Method: (§2) For the concentration-dependent cellular uptake experiments, the BV2 cells on 24-well plates were incubated with studied compounds (1–200 μM) in pre-warmed HBSS buffer (250 μL) at 37 °C for 30 min. The experiment was then carried out as described for the time-dependent uptake above and the concentration of studied compounds in the cell lysate was analyzed by the LC-MS/MS methods described above and the results were normalized to the total protein concentration. The distinct transport mechanisms were separated from the Michaelis-Menten kinetics by using Eadie–Hofstee plot.
(§3) The studied compounds (1–15) were analyzed by using Agilent 1200 Series Rapid Resolution LC System together with an Agilent 6410 Triple Quadrupole Mass Spectrometer equipped with an electrospray ionization source (Agilent Technologies, Santa Clara, CA, USA). The chromatographic separations of analytes were achieved by using a reversed-phase Zobrax SB-C18 column (50 mm × 2.1 mm, 1.8 μm; Agilent Technologies, Santa Clara, CA, USA) by eluting the samples with 0.1% formic acid in water (A) and 0.1% formic in ACN (B). Labetalol and diclofenac were used as internal standards (ISTD) for the prodrugs and parent drugs, respectively. The transitions used for the quantification at the positive ion mode and chromatographic conditions of each compound and their parent drugs are listed in Table S1. The methods of compounds 1–11 have been reported earlier, while the methods of compounds 12–15 are reported herein for the first time.

Transport Type 2 = test: Concentration-dependent cellular uptake into BV2 cells, Eadie–Hofstee analysis, Transport Type 2; type: cell-based, mouse; settings: 1–200 µM, 30 min, mean ± SD, n = 3
Method: as §2, §3

LAT1 [4] = biological target: T1, LAT1; test: Cellular uptake of L-leucine after pre-incubation of BV2 cells with the compounds; type: cell-based; settings: 100 µM (L-glutamine 2 mM) pre-incubated 10 min or 3 h, L-leucine 1–400 µM, 5 min
Method: The ability of compounds 1–15 to affect the uptake of a known LAT1 substrate L-leucine was evaluated by pre-incubating the BV2 cells at 37 °C for 10 min or 3 h with uptake buffer pH 7.4 (250 μL) containing 100 µM of compounds 1–15 or thyroxin (T4), or known nuclear receptor inducible compounds, phenobarbital (constitutive androstane receptor, CAR), and dexamethasone (pregnane X receptor, PXR) as controls. […] After incubation, the reaction was stopped by adding 250 µL of ice-cold HBSS, and the cells were washed two times with ice-cold HBSS. The cells were then lysed with 500 μL of 0.1 M NaOH (60 min) and the lysate was mixed with 3.5 mL of Emulsifier safe cocktail (Ultima Gold, PerkinElmer, Waltham, MA, USA). The radioactivity in the cells was measured by liquid scintillation counting (MicroBeta^2 counter, PerkinElmer Waltham, MA, USA). The results were multiplied by the amount of un-labeled proportion of L-leucine in each sample.

[5] = test system: immortalized mouse microglia (BV2); test: Time-dependent cellular uptake of compounds into BV2 cells (LC-MS/MS); type: cell-based
Method: (§4) For the time-dependent cellular uptake experiments, the BV2 cells on 24-well plates were incubated with studied compounds (100 μM) in a pre-warmed HBSS buffer (250 μL) at 37 °C for 1–60 min. Subsequently, the cells were washed three times with an ice-cold HBSS and lysed with 250 μL of NaOH (0.1 M) for 60 min. The lysates were diluted with acetonitrile (ACN) including the selected internal standard (diclofenac to all compounds) with a ratio of 1:3 and centrifuged at 10,000× g for 10 min. The samples were analyzed by the liquid chromatography-tandem mass spectrometric (LC-MS/MS) methods as described below. The concentrations of each compound in cell lysates were calculated from the standard curve that was prepared by spiking known amounts of compounds to ACN including the selected internal standard and then normalized with protein concentration. The protein concentrations on each plate were determined as a mean of three samples by Bio-Rad Protein Assay, based on the Bradford dye-binding method, using bovine serum albumin (BSA) as a standard protein and measuring the absorbance (595 nm) by multiplate reader (EnVision, Perkin Elmer, Inc., Waltham, MA, USA).
as §3

[6] = as above; type: cell-based, mouse; settings: mouse, BV2 microglia cells, 100 µM compound, 1–60 min, mean ± SD, n = 3, read-out: T½ of cellular uptake
Method: as §4, §3

LAT1 [7] = biological target: T1, LAT1; test: Cellular uptake of compounds in the presence of LAT1-inhibitor (KMH-233); type: cell-based; settings: 100 µM compound, 100 µM KMH-233, 30 min, BV2
Method: The competitive uptake in the presence of LAT1-inhibitor (KMH-233) was carried out as described above with HBSS buffer solution containing 100 µM of the studied compounds. The cells were pre-incubated with 100 µM LAT1-inhibitor for 10 min and the incubation mixture was removed before adding the studied compound and LAT1-inhibitor on the cells. The competitive uptake (30 min) with the inhibitor was then carried out as the normal uptake described above. The amounts of studied compounds were analyzed by the LC-MS method and calculated from the spiked standard curve and normalized with the protein concentrations.

LAT1 [8] = test: Quantitative expression of LAT1 on the BV2 plasma membrane (LC-MS proteomics); type: cell-based, mouse; settings: BV2 cells incubated 24 h; normalized to Na+/K+ATPase; compared to untreated control
Method: The protein expression levels of LAT1, in the plasma membrane fractions of BV2 cells were quantified using multiplexed MRM analysis according to the protocol described by Uchida et al.. First, the crude membrane fractions were isolated from three distinct sets of cell culture plates using Membrane Protein Extraction Kit (BioVision Incorporated, Milpitas, CA, USA) according to the manufacturer’s instructions. The protein content for each fraction was measured by Bio-Rad Protein Assay, based on the Bradford dye-binding method (EnVision, Perkin Elmer, Inc., Waltham, MA, USA). A total amount of 50 µg protein from each fraction was solubilized/denatured in 7 M guanidine hydrochloride, 0.5 M Tris-HCl and 10 mM EDTA-Na. The proteins were then reduced by dithiothreitol (1:50, w/w) and S-carboxymethylated by iodoacetamide (1:20, w/w). The alkylated proteins were precipitated by methanol/chloroform/water (4:1:3) and centrifuged at 18,000× g for 5 min at 4 °C. The pellet was resuspended in 6 M urea and mixed for 10 min at room temperature before the dilution with 0.1 M Tris-HCl (pH 8.5) to a final concentration of 1.2 M urea, and dissolved completely by intermittent sonication (Branson 3510, Danbury, CT, USA). The dissolved proteins were first digested with LysC (1/100, w/w) and 0.05% ProteaseMax (Promega Biotech AB, Nacka, Sweden) for 3 h at room temperature. Then, the samples were spiked with 10 µL (30 fmol) of the labelled peptides for absolute quantification (JPT Peptide Technologies GmbH, Berlin, Germany) (Table S2). The samples were incubated with (1/100, w/w) TPCK-Trypsin (Promega Biotech AB, Nacka, Sweden) for 18 h at 37 °C. The tryptic digestion was then quenched by adding 40 µL of 5% formic acid. The samples were then centrifuged at 18,000× g for 5 min at 4 °C, and the supernatants were transferred to vials for analysis.
The digested peptides were analyzed using an ultra-performance liquid chromatography system coupled with a triple quadrupole mass spectrometer with a heated electrospray ionization source in the positive mode (UPLC 1290 and MSD 6495, Agilent Technologies, Santa Clara, CA, USA). A total amount of 20 µL of the digested peptides (10 µg) was separated using AdvanceBio Peptide Map 2.1 × 250 mm, 2.7 μm column (Agilent Technologies, Santa Clara, CA, USA) and LC eluents of 0.1% formic acid in water (A) and acetonitrile (B). The peptides were eluted following a constant flow rate of 0.3 mL/min and a gradient of 2–7% B for 2 min, followed by 7–30% B for 48 min, 30–45% B for 3 min, and 45–80% B for 2.5 min before re-equilibrating the column again for 4.5 min. LAT1 was quantified based on the ratio between the light and heavy standard peptides, as described previously (Table S2). Data was acquired using Agilent MassHunter Workstation Acquisition (Agilent Technologies, Data Acquisition for Triple Quadrupole, version B.03.01) and processed by using Skyline software (version 20.1). The results were normalized to a housekeeping protein Na+/K+ATPase and expressed as fmol/µg of the total amount of protein in the samples.

[9] = probe [3H]-L-Kynu, n = 3–4, read-out: IC50 of [3H]-L-Kynu uptake
[10] = probe [3H]-L-Met, n = 3–4, read-out: IC50 of [3H]-L-Met uptake
[11] = probe [3H]-L-Trp, n = 3–4, read-out: IC50 of [3H]-L-Trp uptake
[12] = 100 µM compound, 1–60 min, mean ± SD, n = 3

T1 sequence (Q9Z127 whole entry): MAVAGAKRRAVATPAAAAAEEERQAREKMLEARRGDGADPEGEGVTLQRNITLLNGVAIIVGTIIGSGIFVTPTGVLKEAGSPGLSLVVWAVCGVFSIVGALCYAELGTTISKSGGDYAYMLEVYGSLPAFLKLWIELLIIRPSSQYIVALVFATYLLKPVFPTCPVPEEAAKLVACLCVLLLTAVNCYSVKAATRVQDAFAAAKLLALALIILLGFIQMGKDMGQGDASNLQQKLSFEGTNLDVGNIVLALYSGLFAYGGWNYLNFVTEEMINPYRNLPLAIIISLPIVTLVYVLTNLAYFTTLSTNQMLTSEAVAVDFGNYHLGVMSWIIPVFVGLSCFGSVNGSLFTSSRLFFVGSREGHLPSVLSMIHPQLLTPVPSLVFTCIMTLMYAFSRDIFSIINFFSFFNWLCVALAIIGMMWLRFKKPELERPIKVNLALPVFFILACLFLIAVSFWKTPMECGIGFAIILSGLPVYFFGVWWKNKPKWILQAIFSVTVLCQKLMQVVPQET
T1 sequence (P10852 whole entry partner): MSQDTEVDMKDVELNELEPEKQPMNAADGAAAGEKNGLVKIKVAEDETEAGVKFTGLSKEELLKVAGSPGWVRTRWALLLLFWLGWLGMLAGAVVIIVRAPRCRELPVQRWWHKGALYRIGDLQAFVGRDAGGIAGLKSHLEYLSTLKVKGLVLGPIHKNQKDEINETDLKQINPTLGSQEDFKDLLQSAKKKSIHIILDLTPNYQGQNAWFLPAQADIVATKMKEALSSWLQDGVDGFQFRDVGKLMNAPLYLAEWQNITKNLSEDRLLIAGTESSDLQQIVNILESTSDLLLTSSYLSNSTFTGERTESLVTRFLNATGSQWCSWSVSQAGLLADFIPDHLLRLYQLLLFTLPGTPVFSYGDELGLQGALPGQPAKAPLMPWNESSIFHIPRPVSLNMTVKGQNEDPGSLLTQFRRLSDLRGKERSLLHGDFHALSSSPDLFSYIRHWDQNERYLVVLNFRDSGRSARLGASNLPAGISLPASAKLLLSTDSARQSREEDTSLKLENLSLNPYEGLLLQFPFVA

SMILES | IC50 (LAT1 [1]; [9]) | IC50 (LAT1 [1]; [10]) | IC50 (LAT1 [1]; [11]) | Vmax of [14C]-L-Leu uptake (LAT1 [2]) | Inhibition Type (LAT1 [2]) | Km (LAT1 [3]) | Transport Type 1 (LAT1) Vmax (LAT1 [3]) | Effect on cellular uptake of L-Leu after pre-incubation (LAT1 [4]) | Max. cellular uptake [5, 12] | half-life at 100 μM [6] | Cellular uptake in the presence of LAT1-inhibitor (LAT1 [7]) | LAT1 expression on the plasma membrane (LAT1 [8]) | other results
CC(C(=O)Nc1ccc(CC(N)C(=O)O)cc1)c1cccc(C(=O)c2ccccc2)c1 (stereo not shown) [Compound 3] | 11.9 ± 1.3 µM | 17.1 ± 1.9 µM | 39.2 ± 1.5 µM | 2.851 ± 0.035 nmol/min/mg | Non-competitive | 1.9 ± 0.3 µM | 3.7 ± 0.5 pmol/mg/min | decreased the amount of L-Leu inside the cells | 1.96 ± 0.14 nmol/mg of protein | 1.5 ± 0.67 min | inhibited significantly |  | Inhibition of LAT1-probe substrate uptake / LAT1 affinity (LAT1 [1]; over all probe substrates): lower affinity and higher IC50 values; IC50 (LAT1 [1]; probe [14C]-L-Leu, n = 3–4, read-out: IC50 of [14C]-L-Leu uptake): 26 ± 1.1 µM; Km (Transport Type 2): 148 ± 41 µM; Transport Type 2 Vmax (Transport Type 2): 49 ± 9 pmol/mg/min
CC(C)Cc1ccc([C@H](C)C(=O)Nc2cccc(C[C@H](N)C(=O)O)c2)cc1 [Compound 10] | 7.7 ± 1.1 µM | 9.6 ± 1.6 µM | 43.4 ± 1.5 µM | 2.151 ± 0.066 nmol/min/mg | Mixed type | 22 ± 6 µM | 205 ± 41 pmol/mg/min |  | 4.14 ± 0.31 nmol/mg of protein | < 1 min | only reductive trends were seen |  | IC50 (LAT1 [2]; Table 2, compound concentration used in the inhibition type study, corresponding to IC50 of [14C]-L-Leu uptake): 13 µM; T½ of cellular uptake [5, 12]: 0.87 ± 0.55 min; LAT1-substrate or LAT1-binder ([5]; concluded from time-dependent uptake, 100 µM): LAT1-binders rather than substrates
NC(=O)CC[C@H](N)C(=O)O [L-glutamine, reference compound] |  |  |  |  |  |  |  | decreased the amount of L-Leu inside the cells |  |  |  |  | 
C[C@@H]1C[C@H]2[C@@H]3CCC4=CC(=O)C=C[C@]4(C)[C@@]3(F)[C@@H](O)C[C@]2(C)[C@@]1(O)C(=O)CO [dexamethasone, reference compound] |  |  |  |  |  |  |  |  |  |  |  | did not have any effect on LAT1 expression | 
CCC1(c2ccccc2)C(=O)NC(=O)NC1=O [phenobarbital, reference compound] |  |  |  |  |  |  |  |  |  |  |  | did not have any effect on LAT1 expression | 

From PMC8746705, “Comparison of Experimental Strategies to Study L-Type Amino Acid Transporter 1 (LAT1) Utilization by Ligands” (Molecules, 2021)
